Results: PMC10060354, “Discovery of a small molecule ligand of FRS2 that inhibits invasion and tumor growth” (Cellular Oncology, 2022)
≈ marks a conversion by molar mass, not a printed value. Like-named read-outs stand apart in the source and are kept apart here.

How the values were obtained:
[1] = Semi-thermodynamic solubility; assay type: physicochemical; settings: for solubility / solubility thermodynamic: PBS, aqueous buffer, thermodynamic from solid; for solubility: Room Temp, Overnight, LC-MSMS; for solubility thermodynamic: overnight; for solubility thermodynamic / Solubility (class in words): summary sheet; for solubility (result in words): Supplementary Table 2
Outline: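 Compound solution agitated overnight at ambient temperature, then centrifuged twice (30 min, 3000 rpm, RT). Supernatant diluted in 50% methanol/water with internal standard and quantified by LC–MS/MS. Solubility derived from a linear or quadratic fit of the standard curve.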

[2] = Microsomal metabolic stability; assay type: in vitro ADME; settings: human, pooled liver microsomes; for half-life at 1 µM: pH 7.4, liver microsomes; for microsomal CLint at 1 µM: pH 7.4, read-out: Metabolic stability - Intrinsic clearance (CI)
Outline: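 Pooled liver microsomes were incubated with NADPH for 0, 5, 15, 30 and 45 min; the minus-NADPH control (0.1 M phosphate pH 7.4) ran 45 min only. Reactions were stopped in acetonitrile and analysed by LC–MS/MS. t1/2 = 0.693/k came from the ln peak-area-ratio versus time slope, and CLint (μl/min/mg protein) was derived from it.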

[3] = system: HepG2 human hepatocellular carcinoma cells; experiment: Cell viability (cytotoxicity, MTT) using HepG2; assay type: cell-based; settings: for MEC: 72h, 3 replicas, NR = No response (Summary sheet); for MTT (MEC) Minimum effective concentration: 72 h, summary sheet
Outline: (§1)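 Compounds were tested at 8 concentrations in triplicate on HepG2 cells plated 24 h beforehand, with 72 h exposure in 1% DMSO medium. MTT was loaded 1 h before the end, solubilized in DMSO and read at 570 nm. Minimum effective concentration is the lowest concentration exceeding the significance level, given dose-response or two consecutive points above it.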

[4] = Cell viability (cytotoxicity, MTT) using HepG2; assay type: cell-based, human; settings: human, HepG2 cells, 72 h, summary sheet, read-out: MTT (AC50) Conc at which 50% of maximum efficacy is reached
Outline: as §1

[5] = CaCo-2 permeability (bi-directional); settings: human
Outline: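 Caco-2 monolayers (passage 40–60) cultured 20 days on Transwells, equilibrated 40 min in HBSS; compound dosed apically (A-B) or basolaterally (B-A) with 1% v/v DMSO and lucifer yellow integrity marker, in duplicate. LC–MS/MS quantification; Papp from permeation rate, C0 and monolayer area; efflux ratio = Papp(B-A)/Papp(A-B).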

[6] = system: DAOY cells; experiment: Spheroid invasion assay (SIA), bFGF-induced collagen I invasion; assay type: cell-based, human; settings: for functional activity in SIA (result in words): DAOY, bFGF-induced, 1, 5 and 10 µM; for EC50: Daoy
Outline: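 Spheroids formed over 24–72 h were embedded in collagen I (final 1.75 mg/ml) and stimulated with bFGF (100 ng/ml unless stated), HGF 30 ng/ml or EGF 20 ng/ml with compound in DMSO. Invasion distance was quantified 24–48 h after embedding.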

[7] = read-out: Solubility Replicate 1
[8] = read-out: Solubility Replicate 2
[9] = read-out: Solubility Replicate 3
[10] = read-out: Solubility Replicate 4
[11] = Caco-2, Mean Papp B-A, Caco-2, summary sheet
[12] = Caco-2, pH 7.4, Mean % Recovery A2B, HBSS/HBSS, pH 7.4/7.4
[13] = Caco-2, pH 7.4, Mean % Recovery B2A, HBSS/HBSS, pH 7.4/7.4
[14] = Caco-2, pH 7.4, Mean Papp B2A, HBSS/HBSS, pH 7.4/7.4
[15] = Caco-2, pH 7.4, Papp B2A Replicate 1, HBSS/HBSS, pH 7.4/7.4
[16] = Caco-2, pH 7.4, Papp B2A Replicate 2, HBSS/HBSS, pH 7.4/7.4
[17] = read-out: t1/2 of clearance (CL1/2), in vitro
[18] = Caco-2, Mean Papp A-B, Caco-2, summary sheet
[19] = Caco-2, pH 7.4, Mean Papp A2B, HBSS/HBSS, pH 7.4/7.4
[20] = Caco-2, pH 7.4, Papp A2B Replicate 1, HBSS/HBSS, pH 7.4/7.4
[21] = Caco-2, pH 7.4, Papp A2B Replicate 2, HBSS/HBSS, pH 7.4/7.4

For `N#Cc1c(Cl)cc(O)c2c1C1C=CCC1C(c1ccc(Cl)cc1)N2` (centres unmarked) [Compound 14], the solubility ([1]; read-out: Mean Solubility) was 24.8 µM (≈ 8.86 µg/mL), the solubility [1, 7] was 25 µM (≈ 8.93 µg/mL) and the solubility [1, 8] was 16.6 µM (≈ 5.93 µg/mL). The solubility [1, 9] was 27.2 µM (≈ 9.72 µg/mL), the solubility [1, 10] was 30.3 µM (≈ 10.8 µg/mL) and the solubility thermodynamic [1] was 24.8 µM (≈ 8.86 µg/mL). The “Solubility (class in words)” value [1] was “Sparingly”, the half-life at 1 µM ([2]; read-out: t1/2) was 1.64 min and the microsomal CLint at 1 µM [2] was 845 µL/min/mg. For the same compound, the MEC [3] was 3.93 µM, the “MTT (MEC) Minimum effective concentration” value [3] was 3.93 µM and the AC50 at 72 h [4] was 5.24 µM. For the same compound, the Papp B→A at 120 min, 10 μM [5, 11] was 2.31 ×10⁻⁶ cm/s, the recovery at 120 min, 10 µM [5, 12] was 81.1% and the recovery at 120 min, 10 µM [5, 13] was 50.7%. It also gave a Papp B→A at 120 min, 10 μM [5, 14] of 2.31 ×10⁻⁶ cm/s, a Papp B→A at 120 min, 10 μM [5, 15] of 3.4 ×10⁻⁶ cm/s and a Papp B→A at 120 min, 10 μM [5, 16] of 1.22 ×10⁻⁶ cm/s. For the same compound, the “functional activity in SIA (result in words)” value (“functional activity in SIA” for short) [6] was “reduced invasion comparable to the parent compound 7”.

`O=[N+]([O-])c1c(Cl)cc(O)c2c1C1C=CCC1C(c1ccc(Cl)cc1)N2` (centres unmarked) [Compound 7] showed a solubility ([1]; read-out: Mean Solubility) of 10.4 µM (≈ 3.92 µg/mL), a solubility [1, 7] of 11.8 µM (≈ 4.45 µg/mL) and a solubility [1, 8] of 9.33 µM (≈ 3.52 µg/mL). For the same compound, the solubility [1, 9] was 9.97 µM (≈ 3.76 µg/mL), the “solubility (result in words)” value [1] was “sparingly soluble” and the solubility thermodynamic [1] was 10.4 µM (≈ 3.92 µg/mL). The “Solubility (class in words)” value [1] was “Sparingly”, the half-life at 1 µM ([2]; read-out: t1/2) was 3.62 min and the half-life at 1 µM [2, 17] was 3.62 min. For the same compound, the microsomal CLint at 1 µM [2] was 383 µL/min/mg, the “toxicity in the MTT assay (result in words)” value [3] was “moderately toxic” and the MEC [3] was 4.38 µM. For the same compound, the “MTT (MEC) Minimum effective concentration” value [3] was 4.38 µM, the AC50 at 72 h [4] was 7.02 µM and the efflux ratio at 120 min, 10 μM ([5]; Caco-2) was 2.84. For the same compound, the Papp A→B at 120 min, 10 μM [5, 18] was 3.59 ×10⁻⁶ cm/s, the Papp B→A at 120 min, 10 μM [5, 11] was 10.2 ×10⁻⁶ cm/s and the efflux ratio at 120 min, 10 μM ([5]; Caco-2, pH 7.4) was 2.84. For the same compound, the recovery at 120 min, 10 µM [5, 12] was 15.3%, the recovery at 120 min, 10 µM [5, 13] was 37.8% and the Papp A→B at 120 min, 10 μM [5, 19] was 3.59 ×10⁻⁶ cm/s. The Papp B→A at 120 min, 10 μM [5, 14] was 10.2 ×10⁻⁶ cm/s, the Papp A→B at 120 min, 10 μM [5, 20] was 3.41 ×10⁻⁶ cm/s and the Papp A→B at 120 min, 10 μM [5, 21] was 3.76 ×10⁻⁶ cm/s. For the same compound, the Papp B→A at 120 min, 10 μM [5, 15] was 8.39 ×10⁻⁶ cm/s, the Papp B→A at 120 min, 10 μM [5, 16] was 12 ×10⁻⁶ cm/s and the “functional activity in SIA” value [6] was “performed equally well as 3.18”. For the same compound, the EC50 ([6]; Homo sapiens, 100 ng/ml bFGF, read-out: Collagen I invasion EC50) was 2.54 µM and the IC50 ([6]; Homo sapiens, DAOY wt) was 2.76 µM.

With `Cc1[nH]nc(-c2ccc(O)c(C)c2O)c1-c1nc2ccccc2s1` [Compound E12] the solubility ([1]; read-out: Mean Solubility) was > 100 µM, the solubility [1, 7] was > 100 µM and the solubility [1, 8] was > 100 µM. For the same compound, the solubility [1, 9] was > 100 µM, the solubility [1, 10] was > 100 µM and the “solubility (result in words)” value [1] was “freely soluble”. The solubility thermodynamic [1] was > 100 µM, the “Solubility (class in words)” value [1] was “Freely” and the half-life at 1 µM ([2]; read-out: t1/2) was 5.52 min. For the same compound, the half-life at 1 µM [2, 17] was 5.52 min, the microsomal CLint at 1 µM [2] was 251 µL/min/mg and the “toxicity in the MTT assay (result in words)” value [3] was “moderate toxicity”. For the same compound, the MEC [3] was 15.6 µM, the “MTT (MEC) Minimum effective concentration” value [3] was 15.6 µM and the AC50 at 72 h [4] was 23.7 µM. It also gave an efflux ratio at 120 min, 10 μM ([5]; Caco-2) of 5.13, a Papp A→B at 120 min, 10 μM [5, 18] of 4.53 ×10⁻⁶ cm/s and a Papp B→A at 120 min, 10 μM [5, 11] of 23.2 ×10⁻⁶ cm/s. The efflux ratio at 120 min, 10 μM ([5]; Caco-2, pH 7.4) was 5.13, the recovery at 120 min, 10 µM [5, 12] was 102% and the recovery at 120 min, 10 µM [5, 13] was 65.6%. It also gave a Papp A→B at 120 min, 10 μM [5, 19] of 4.53 ×10⁻⁶ cm/s, a Papp B→A at 120 min, 10 μM [5, 14] of 23.2 ×10⁻⁶ cm/s and a Papp A→B at 120 min, 10 μM [5, 20] of 3.77 ×10⁻⁶ cm/s. For the same compound, the Papp A→B at 120 min, 10 μM [5, 21] was 5.28 ×10⁻⁶ cm/s, the Papp B→A at 120 min, 10 μM [5, 15] was 22 ×10⁻⁶ cm/s and the Papp B→A at 120 min, 10 μM [5, 16] was 24.4 ×10⁻⁶ cm/s. The “functional activity in SIA” value [6] was “comparable inhibition of invasion” and the EC50 ([6]; Homo sapiens, DAOY cells, n = 3 technical replicas, read-out: EC50 for the inhibition of bFGF-induced collagen I invasion) was 18.2 µM.
